Assay results from publication PMC8464939, “Epicatechin Gallate as Xanthine Oxidase Inhibitor: Inhibitory Kinetics, Binding Characteristics, Synergistic Inhibition, and Action Mechanism” (Foods, 2021).
Where two headings read alike, the source gives them in different places. One block for each molecule: values may come before it.

Key:
XO = settings: cited from earlier work
[1] = O2− radical scavenging activity assay (PMS–NADH system, NBT); settings: ECG 45.0 μM
Description: NBT could be reduced to blue formazan by O2^− radical produced by the PMS–NADH system; thus, this method was used to evaluate the O2^− radical scavenging activity of ECG [33]. The reaction solutions were prepared by mixing NBT (55.0 μM), NADH (0.27 mM), and different concentrations of ECG, and then 0.2 mL PMS (0.155 mM) was added to initiate the reaction. After the samples were incubated for 15 min, the absorbance at 560 nm was measured. Ethanol was used instead of ECG as the blank group, and the values of decreasing percentage in absorbance were calculated to analyze the scavenging activity of ECG.

xanthine oxidase (XO) [2] = molecular target: T1, xanthine oxidase (XO) (Bos taurus, UniProt P80457); assay: XO activity assay (uric acid formation, absorbance at 293 nm); type: biochemical, bovine
T1 sequence (P80457 whole entry): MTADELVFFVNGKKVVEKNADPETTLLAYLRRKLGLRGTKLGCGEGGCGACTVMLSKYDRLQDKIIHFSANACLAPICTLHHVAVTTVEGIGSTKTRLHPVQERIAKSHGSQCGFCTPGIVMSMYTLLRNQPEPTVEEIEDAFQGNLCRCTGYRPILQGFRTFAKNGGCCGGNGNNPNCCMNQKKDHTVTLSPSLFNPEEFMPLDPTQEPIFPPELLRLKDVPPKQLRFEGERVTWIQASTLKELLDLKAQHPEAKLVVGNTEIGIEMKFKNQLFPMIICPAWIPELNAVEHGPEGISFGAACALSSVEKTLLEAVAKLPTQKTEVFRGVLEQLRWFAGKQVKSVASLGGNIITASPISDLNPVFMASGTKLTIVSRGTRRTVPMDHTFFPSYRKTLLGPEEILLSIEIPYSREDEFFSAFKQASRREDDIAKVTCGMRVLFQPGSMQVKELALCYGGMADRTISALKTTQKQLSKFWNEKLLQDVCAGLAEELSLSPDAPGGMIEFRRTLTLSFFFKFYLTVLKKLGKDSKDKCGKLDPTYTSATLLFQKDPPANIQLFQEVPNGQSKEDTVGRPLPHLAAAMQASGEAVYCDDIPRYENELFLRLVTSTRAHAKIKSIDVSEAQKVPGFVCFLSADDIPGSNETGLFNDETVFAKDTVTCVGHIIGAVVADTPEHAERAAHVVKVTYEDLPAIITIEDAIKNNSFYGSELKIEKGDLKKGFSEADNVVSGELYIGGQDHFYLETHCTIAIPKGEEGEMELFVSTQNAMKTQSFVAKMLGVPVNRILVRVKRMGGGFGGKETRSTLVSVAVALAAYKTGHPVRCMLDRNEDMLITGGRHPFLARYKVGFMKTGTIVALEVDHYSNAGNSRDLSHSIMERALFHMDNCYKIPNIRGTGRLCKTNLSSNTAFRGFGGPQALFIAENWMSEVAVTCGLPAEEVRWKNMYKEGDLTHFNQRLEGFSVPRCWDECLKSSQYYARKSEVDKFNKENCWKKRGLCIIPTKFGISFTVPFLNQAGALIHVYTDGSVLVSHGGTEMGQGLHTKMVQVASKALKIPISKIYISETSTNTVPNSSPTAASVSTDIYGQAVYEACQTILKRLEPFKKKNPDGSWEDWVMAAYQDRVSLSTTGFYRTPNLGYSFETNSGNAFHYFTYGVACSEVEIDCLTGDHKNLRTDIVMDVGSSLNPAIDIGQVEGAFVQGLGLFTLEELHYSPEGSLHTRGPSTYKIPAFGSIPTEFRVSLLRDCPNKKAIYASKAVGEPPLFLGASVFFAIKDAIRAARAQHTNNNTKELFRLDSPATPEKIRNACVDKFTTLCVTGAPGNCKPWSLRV

xanthine oxidase (XO) [3] = molecular target: T1, xanthine oxidase (XO); assay: Fluorescence microscopy imaging of XO; design: species or system bovine; settings: XO 1.0 μM; ECG 40.0 μM
Description: The free XO solution and the mixture of ECG and XO were prepared and incubated for 1h at room temperature. The appropriate amount of samples was placed on a microscope slide, and then the structural changes of XO induced by ECG were observed through a fluorescent inverted microscope with an excitation light of FBW (IX73, Olympus, Japan).

xanthine oxidase (XO) [4] = molecular target: T1, xanthine oxidase (XO); assay: Inhibition of O2− radical generated by XO (NBT); type: biochemical, bovine; settings: XO 0.7 μM
Description: The O2^− radicals generated during the catalytic process of XO could also be used to assess the antioxidant activity of ECG. The XO (0.70 μM) and different concentrations of ECG were mixed in Tris–HCl buffer and incubated at 37 °C for 30 min. Then, NBT (55.0 μM) and xanthine were added to the samples, respectively, and the absorbance of the mixture at 560 nm was recorded. A small amount of Triton X−100 (0.2%, v/v) was added for solubilization and the control group was equal volume ethanol.

xanthine oxidase (XO) [5] = molecular target: T1, xanthine oxidase (XO); assay: CD spectra: secondary structure of XO; design: species or system bovine
Description: The CD spectrometer (Bio−Logic MOS 450, Claix, France) was used to determine the CD spectra to analyze the effects of ECG on the secondary structure of XO. The free XO (1.0 μM) and its mixed solutions with different molar ratios ([ECG]/[XO], 0:1, 10:1, 20:1 and 40:1) were prepared, and then the CD spectra of the samples in the range of 190−250 nm were measured in a nitrogen stream. The specific secondary structure contents were analyzed by our previous study.

polyphenoloxidase = system: polyphenoloxidase; design: method as in earlier work; settings: ref 41 (Sae-Leaw et al.); cited from earlier work
xanthine oxidase (XO) [6] = molecular target: T1, xanthine oxidase (XO); assay: Kinetic analysis of enzyme-catalyzed reaction (Lineweaver–Burk); type: biochemical, bovine
Excerpt: The same determination method of enzyme activity was used to conduct the inhibition kinetics analysis of ECG on XO. In the presence of a series of different concentrations of ECG, the concentration of XO or xanthine was changed to determine the catalytic rate, and then the inhibition type was ascertained by the Lineweaver-Burk plots in double reciprocal form. […] Km, Ki, and α are on behalf of the Michaelis-Menten constant, dissociation constant, and apparent coefficient, respectively.

xanthine oxidase (XO) [7] = molecular target: T1, xanthine oxidase (XO); assay: Fluorescence titration experiments (quenching, binding, thermodynamics, 3D fluorescence); design: species or system bovine
Description: At three experimental temperatures (25, 31, and 37 °C), XO (1.0 μM) diluted in the Tris–HCl solution was placed in a 1.0 cm cuvette, and then ECG (0–30.0 μM) was added into XO solution successively to conduct the fluorescence titration experiments. After each addition, the fluorescence spectra of the mixed solutions within 300–500 nm were scanned at an excitation wavelength of 280 nm using a fluorescence photometer (F–7000, Hitachi, Japan). The width of the excitation and emission slit was 2.5 nm, respectively. Similarly, the synchronous fluorescence spectra of XO titrated by ECG were measured by setting the difference between excitation and emission wavelength (Δλem) to 15 and 60 nm, respectively. The free XO solution and a mixed sample of XO and ECG were prepared, and then the three-dimensional (3D) fluorescence spectra of the samples were determined; the scanning ranges of both excitation and emission wavelength were 200–600 nm. All fluorescence data were corrected to subtract the internal filtering effect by the following equation [34]:(4) Fc=Fme^(A1+A2)/2 where Fc and Fm represent the […] fluorescence intensity values, respectively; A1 and A2 are the absorbances of ECG at the excitation and emission wavelengths, respectively.
The changes of fluorescence spectra can reflect the binding characteristics between inhibitor and enzyme. […] The specific quenching mechanism of ECG on XO was determined by the relationship between quenching constant (KSV) and temperature, and the values of KSV and Kq (the quenching rate constant) were calculated by the well-known Stern–Volmer equation [44]. (6) F0/F=1+KSVQ=1+Kqτ0Q where F and F0 represent the fluorescence intensity values of XO with and without ECG, respectively; Q is the concentration of ECG; the value of the average fluorescence lifetime of fluorophore for biomacromolecules (τ0) is 10^−8 s. […] Furthermore, the binding constant (Ka) and the number of binding sites (n) were calculated through the following formula:(7) logF0−F/F=nlogKa−nlog1/Qt−(F0−F)Pt/F0 where [Qt] and [Pt] represent the concentrations of ECG and XO, respectively. […] The n values were close to 1, reflecting that XO had only one class of binding sites for ECG, which was consistent with the conclusions of enzyme kinetics analysis.
The values of thermodynamic parameters of the binding process between ECG and XO, such as entropy change (ΔS°), enthalpy change (ΔH°), and free energy change (ΔG°), were obtained by the van ‘t Hoff equation:
(9) ΔG=ΔH°−TΔS° where R is the gas constant (8.314 J mol^−1 K^−1), and T is the temperatures of fluorescence titration experiments (25, 31, and 37 °C). […] A similar study reported that the formation of the ECG–α-amylase complex was mainly driven by van der Waals and hydrogen bonds.

[8] = DPPH radical scavenging activity assay; settings: ECG 15 μM
Description: The DPPH free radical scavenging activity of ECG was tested according to Aalim et al. with slight modification. DPPH was dissolved in ethanol, and then different concentrations of ECG were added to prepare a series of samples. The mixed solutions were protected from light and reacted for 30 min. The absorbance of the samples at 517 nm was determined by an enzyme-labeled instrument (Varioskan LUX, Thermo Fisher Scientific, Waltham, MA, USA). An equal volume of ethanol was used as a control. The free radical scavenging activity of ECG was assessed by the change of percentage in absorbance.

[9] = read-out: IC50 for inhibiting XO activity
[10] = previous study of the authors, read-out: IC50 for inhibiting XO activity

Structure (SMILES): O=C(O)/C=C/c1ccc(O)c(O)c1 [caffeic acid]
IC50 (XO; [9]): 7160 µM

Structure (SMILES): O=C(/C=C/c1ccc(O)c(O)c1)O[C@@H]1C[C@](O)(C(=O)O)C[C@@H](O)[C@H]1O [chlorogenic acid]
IC50 (XO; [9]): 6490 µM

Structure (SMILES): O=c1c(O)c(-c2ccc(O)cc2)oc2cc(O)cc(O)c12 [kaempferol]
inhibition manner on XO (XO; previous study of the authors): reversibly inhibited XO activity in a competitive manner

Structure (SMILES): O=c1c(O)c(-c2cc(O)c(O)c(O)c2)oc2cc(O)cc(O)c12 [myricetin]
IC50 (XO; [10]): 8.66 µM

IC50 (xanthine oxidase (XO) [2]; pH 7.4, XO 0.075 μM, xanthine 50.0 μM, read-out: IC50 for inhibiting XO activity): 19.3 ± 0.45 µM | IC50 (xanthine oxidase (XO) [4]; read-out: dose at which relative inhibition rate of production of O2− radical reached 50%): 18.5 µM | relative inhibition rate of generation of O2− radical from XO catalysis (final plateau) (xanthine oxidase (XO) [4]; xanthine 0.1, 0.2, 0.5 mM): 90% | inhibition type (xanthine oxidase (XO) [6]; Lineweaver–Burk plots): mixed inhibitor | αKi (xanthine oxidase (XO) [6]; XO−xanthine complex): 82.4 ± 0.70 µM | Ki (xanthine oxidase (XO) [6]; dissociation constant, free XO): 5.27 ± 0.24 µM | reversibility of inhibition (xanthine oxidase (XO) [6]; plots of ν vs. [XO]): reversibly inhibited | n values (xanthine oxidase (XO) [7]; 25, 31 and 37 °C): ~1 | Kq (quenching rate constant) (xanthine oxidase (XO) [7]; 25, 31 and 37 °C, compared with maximum scattering collision rate constant): > 2e+10 M⁻¹ s⁻¹ | Kd (xanthine oxidase (XO) [7]; 25, 31 and 37 °C, read-out: binding constant Ka, magnitude): ~100 µM | Ksv (xanthine oxidase (XO) [7]; 298 K): 1.76 ± 0.02 ×10^4 L mol^−1 | n (number of binding sites) (xanthine oxidase (XO) [7]; 298 K): 0.91 ± 0.01 | ΔG° (xanthine oxidase (XO) [7]; 298 K): -5.813 ± 0.0956 kcal/mol | Kd (xanthine oxidase (XO) [7]; 298 K, read-out: Ka (binding constant) (converted)): 54.9 µM | Ksv (xanthine oxidase (XO) [7]; 304 K): 1.32 ± 0.03 ×10^4 L mol^−1 | n (number of binding sites) (xanthine oxidase (XO) [7]; 304 K): 0.95 ± 0.02 | ΔG° (xanthine oxidase (XO) [7]; 304 K): -5.81 ± 0.0837 kcal/mol | Kd (xanthine oxidase (XO) [7]; 304 K, read-out: Ka (binding constant) (converted)): 66.2 µM | Ksv (xanthine oxidase (XO) [7]; 310 K): 1.15 ± 0.01 ×10^4 L mol^−1 | n (number of binding sites) (xanthine oxidase (XO) [7]; 310 K): 0.87 ± 0.02 | ΔG° (xanthine oxidase (XO) [7]; 310 K): -5.805 ± 0.0669 kcal/mol | Kd (xanthine oxidase (XO) [7]; 310 K, read-out: Ka (binding constant) (converted)): 81.3 µM | ΔH° (xanthine oxidase (XO) [7]; van 't Hoff, 298–310 K): -5.987 ± 0.0478 kcal/mol | ΔS° (xanthine oxidase (XO) [7]; van 't Hoff, 298–310 K): −2.44 ± 0.07 J mol^−1 K^−1
Structure (SMILES): O=C(O[C@@H]1Cc2c(O)cc(O)cc2O[C@@H]1c1ccc(O)c(O)c1)c1cc(O)c(O)c(O)c1 [ECG, Epicatechin gallate]
scavenging rate of O2− radical generated by PMS–NADH system [1]: 55.64% | activity of XO at high ECG concentration (xanthine oxidase (XO) [2]; ECG 300 μM): almost completely inhibited | average area of green bright spots of XO with ECG (xanthine oxidase (XO) [3]): 172.31 μm^2 | Random Coil content of XO (xanthine oxidase (XO) [5]; [ECG]:[XO] 10:1): 25.12 ± 0.69% | α-Helix content of XO (xanthine oxidase (XO) [5]; [ECG]:[XO] 10:1): 10.83 ± 0.51% | β-Sheet content of XO (xanthine oxidase (XO) [5]; [ECG]:[XO] 10:1): 42.51 ± 0.41% | β-Turn content of XO (xanthine oxidase (XO) [5]; [ECG]:[XO] 10:1): 21.65 ± 0.94% | Random Coil content of XO (xanthine oxidase (XO) [5]; [ECG]:[XO] 20:1): 24.03 ± 0.31% | α-Helix content of XO (xanthine oxidase (XO) [5]; [ECG]:[XO] 20:1): 10.96 ± 0.62% | β-Sheet content of XO (xanthine oxidase (XO) [5]; [ECG]:[XO] 20:1): 43.41 ± 0.74% | β-Turn content of XO (xanthine oxidase (XO) [5]; [ECG]:[XO] 20:1): 21.59 ± 0.13% | Random Coil content of XO (xanthine oxidase (XO) [5]; [ECG]:[XO] 40:1): 22.51 ± 0.24% | α-Helix content of XO (xanthine oxidase (XO) [5]; [ECG]:[XO] 40:1): 11.83 ± 0.93% | β-Sheet content of XO (xanthine oxidase (XO) [5]; [ECG]:[XO] 40:1): 45.02 ± 0.22% | β-Turn content of XO (xanthine oxidase (XO) [5]; [ECG]:[XO] 40:1): 21.39 ± 0.25% | inhibition type on polyphenoloxidase (polyphenoloxidase): mixed inhibitory effect | decrease of 3D fluorescence intensity of XO peak 1 (λex/λem = 280/340 nm) (xanthine oxidase (XO) [7]; XO 1.0 μM, ECG 15.0 μM): 34.36% | decrease of 3D fluorescence intensity of XO peak 2 (λex/λem = 230/335 nm) (xanthine oxidase (XO) [7]; XO 1.0 μM, ECG 15.0 μM): 47.59% | IC50 (XO; ref 12 (Yuan et al.), read-out: IC50 inhibiting XO): 0.26 µM | DPPH radical scavenged [8]: 90%

Structure (SMILES): O=c1c(O)c(-c2ccc(O)c(O)c2)oc2cc(O)cc(O)c12 [quercetin]
IC50 (XO; [10]): 7.23 µM
